From patent US7253146B2, “Template-fixed peptidomimetics with antimicrobial activity” (Polyphor Ltd, priority 2001, dated 2007)
Converted amounts (≈) assume the structure as drawn. Read-outs that look alike come from different tables or passages of the source. *1 amine or outer side, *2 acyl side, *3 side chain or, on linkers, in order; H or OH if unused. Where a SMILES comes first, the peptide text is derived from it. [ ]: non-standard residue; d: D form. The star is where a group is joined. X3 = O=C(N[C@H]1C[C@@H](C(=O)[*:2])N([*:1])C1)C1CCCCC1; X2 = CCCCCCCC(=O)N[C@H]1C[C@@H](C(=O)[*:2])N([*:1])C1; Phenylacetyl(4-Ph) = O=C(Cc1ccc(-c2ccccc2)cc1)*; X4 = O=C([C@@H]1C[C@H](N[*:3])CN1[*:1])[*:2]; Diphenylacetyl = O=C(C(c1ccccc1)c1ccccc1)*

Key:
Candida albicans = test system: Candida albicans
Method: (§1) Lyophilized peptides were weighed on a Microbalance (Mettler MT5) and dissolved in sterile water containing 0.01% acetic acid Tachyplesin was purchased from Bachem Ltd. (Bubendorf Switzerland).
(§2) The antimicrobial activities of the peptides were determined by the standard NCCLS broth microdilution method (see ref 1, below) examined in sterile 96-wells plates (Nunclon polystyrene microtiter plates) in a total volume of 100 μl. […] 10^6 colony forming units (CFU)/ml for bacteria or 5×10^3 CFU/ml for Candida. Aliquots (50 μl) of the innocula were added to 50 μl of MH broth containing the peptide in serial twofold dilutions. The microorganisms used were Escherichia coli (ATCC 25922), Pseudomnonas aeruginosa (P. aeruginosa) (ATCC 27853), Stahylococcus aureus (ATCC 29213 and ATCC 25923) and Candida albicans. A selected number of peptides were screened for activity against a larger panel of gram-negative strains. These strains were; Escherichia coli ATCC 43827 and clinical isolates of Pseudomonas (P. aeruginosa V07 14482, P. aeruginosa 15288, P. aeruginosa V02 15328 and P. aeruginosa V09 16085) and Acinetobacter (Acinetobacter V04 19905/1, Acinetobacter V12 21143/1 and Acinetobacter V12 21193/1).

[1] = test system: Escherichia coli (ATCC 25922)
Method: as §1, §2

[2] = test system: Staphylococcus aureus ATCC 25923
Method: as §1, §2

[3] = test system: Staphylococcus aureus ATCC 29213
Method: as §1, §2

[4] = test system: human red blood cells (hRBC); assay: Hemolysis of human red blood cells at 100 μg/ml peptide; conditions: 100 μg/ml of peptide, 20% v/v hRBC, 1 hour at 37° C.
Method: Hemolysis of red blood cells is often employed for assessment of toxicity of related compounds such as protegrin or tachyplesin. Values are given as %-lysis of red blood cells observed at a concentration of 100 μg/ml.
The peptides were tested for their hemolytic activity against human red blood cells (hRBC). Fresh hRBC were washed three times with phosphate buffered saline (PBS) by centrifugation for 10 min at 2000×g. Peptides at a concentration of 100 μg/ml were incubated with 20% v/v hRBC for 1 hour at 37° C. The final erythrocyte concentration was appr. 0.9×10^9/ml. A value of 0% resp. 100% cell lysis was determined by incubation of the hRBC in the presence of PBS alone and resp. 0.1% Triton X-100 in H2O. The samples were centrifuged and the supernatant was 20 fold diluted in PBS buffer and the optical density (OD) of the sample at […] was measured. […] Percent hemolysis was calculated as follows: (OD540peptide/OD540H2O)×100%.

[5] = test system: gram-positive and gram-negative bacteria; conditions: background statement; cited from earlier work
human red blood cells = conditions: cited from earlier work

Compound	MIC Candida albicans (Candida albicans) [µg/mL]	MIC Escherichia coli ATCC 25922 ([1]; ATCC 25922) [µg/mL]	MIC Staphylococcus aureus ATCC 25923 ([2]; ATCC 25923) [µg/mL]	MIC Staphylococcus aureus ATCC 29213 ([3]; ATCC 29213) [µg/mL]	MIC Candida albicans (Candida albicans; Table 8, Mueller-Hinton broth) [µg/mL]	MIC Escherichia coli ATCC 25922 ([1]; Table 8, Mueller-Hinton broth) [µg/mL]	MIC Staphylococcus aureus ATCC 25923 ([2]; Table 8, Mueller-Hinton broth) [µg/mL]	MIC Staphylococcus aureus ATCC 29213 ([3]; Table 8, Mueller-Hinton broth) [µg/mL]	Hemolyses hRBC (percentage hemolyses) [4] [%]	antimicrobial activity [5]	further results
CCCCCCCC(=O)N[C@H]1C[C@H]2C(=O)N[C@@H](CC(C)C)C(=O)N[C@@H](CCCNC(=N)N)C(=O)N[C@@H](CC(C)C)C(=O)N[C@@H](CCCCN)C(=O)N[C@@H](CCCCN)C(=O)N[C@@H](CCCNC(=N)N)C(=O)N[C@@H](CCCNC(=N)N)C(=O)N[C@@H](Cc3c[nH]c4ccccc34)C(=O)N[C@@H](CCCCN)C(=O)N[C@@H](Cc3ccc(O)cc3)C(=O)N[C@@H](CCCNC(=N)N)C(=O)N[C@@H](C(C)C)C(=O)N3CCC[C@@H]3C(=O)N2C1 [Example 257] (cyclo(KKRRWKYRV[dP][X2]LRL))	25 (≈ 12.4 µM)	6.2 (≈ 3.07 µM)	6.2 (≈ 3.07 µM)	6.2 (≈ 3.07 µM)							
CC(C)C[C@@H]1NC(=O)[C@H](CCCNC(=N)N)NC(=O)[C@H](CC(C)C)NC(=O)[C@@H]2C[C@H](NC(=O)Cc3ccc(-c4ccccc4)cc3)CN2C(=O)[C@H]2CCCN2C(=O)[C@H](C(C)C)NC(=O)[C@H](CCCNC(=N)N)NC(=O)[C@H](Cc2ccc(O)cc2)NC(=O)[C@H](CCCCN)NC(=O)[C@H](Cc2c[nH]c3ccccc23)NC(=O)[C@H](CCCNC(=N)N)NC(=O)[C@H](CCCNC(=N)N)NC(=O)[C@H](CCCCN)NC(=O)[C@H](CCCCN)NC1=O [Example 258] (cyclo(KKRRWKYRV[dP][X4](Phenylacetyl(4-Ph))LRL))					12.5 (≈ 5.99 µM)	6.2 (≈ 2.97 µM)	6.2 (≈ 2.97 µM)	6.2 (≈ 2.97 µM)	23.6		
CC(C)C[C@@H]1NC(=O)[C@H](CCCNC(=N)N)NC(=O)[C@H](CC(C)C)NC(=O)[C@@H]2C[C@H](NC(=O)C(c3ccccc3)c3ccccc3)CN2C(=O)[C@H]2CCCN2C(=O)[C@H](C(C)C)NC(=O)[C@H](CCCNC(=N)N)NC(=O)[C@H](Cc2ccc(O)cc2)NC(=O)[C@H](CCCCN)NC(=O)[C@H](Cc2c[nH]c3ccccc23)NC(=O)[C@H](CCCNC(=N)N)NC(=O)[C@H](CCCNC(=N)N)NC(=O)[C@H](CCCCN)NC(=O)[C@H](CCCCN)NC1=O [Example 259] (cyclo(KKRRWKYRV[dP][X4](Diphenylacetyl)LRL))					12.5 (≈ 5.99 µM)	6.2 (≈ 2.97 µM)	6.2 (≈ 2.97 µM)	6.2 (≈ 2.97 µM)	18.0		
CC(C)C[C@@H]1NC(=O)[C@H](CCCNC(=N)N)NC(=O)[C@H](CC(C)C)NC(=O)[C@@H]2C[C@H](NC(=O)C3CCCCC3)CN2C(=O)[C@H]2CCCN2C(=O)[C@H](C(C)C)NC(=O)[C@H](CCCNC(=N)N)NC(=O)[C@H](Cc2ccc(O)cc2)NC(=O)[C@H](CCCCN)NC(=O)[C@H](Cc2c[nH]c3ccccc23)NC(=O)[C@H](CCCNC(=N)N)NC(=O)[C@H](CCCNC(=N)N)NC(=O)[C@H](CCCCN)NC(=O)[C@H](CCCCN)NC1=O [Example 267] (cyclo(KKRRWKYRV[dP][X3]LRL))	12.5 (≈ 6.24 µM)	12.5 (≈ 6.24 µM)	12.5 (≈ 6.24 µM)	6.2 (≈ 3.09 µM)							
CC(C)C[C@H](NC(=O)[C@H](CCCNC(=N)N)NC(=O)CNC(=O)CNC(=O)[C@@H](N)CCCNC(=N)N)C(=O)N[C@H]1CSSC[C@@H](C(=O)N[C@H](C(=O)NCC(=O)N[C@@H](CCCNC(=N)N)C(N)=O)C(C)C)NC(=O)[C@H](C(C)C)NC(=O)[C@@H]2CSSC[C@H](NC(=O)[C@H](Cc3ccc(O)cc3)NC1=O)C(=O)N[C@@H](CCCNC(=N)N)C(=O)N[C@@H](CCCNC(=N)N)C(=O)N[C@@H](CCCNC(=N)N)C(=O)N[C@@H](Cc1ccccc1)C(=O)N2 [protegrin]										potent and similar activity	hemolytic activity (human red blood cells): high hemolytic activity
Gramicidin S										potent antimicrobial activity	hemolytic activity (human red blood cells; background statement): high hemolytic activity
